Reference: PubChem BioAssay AID328 (DTP/NCI, 2004)
Several values for one entry are separate records, joined by “and”; a condition that tells them apart may be missing. Identical values can stand only once. Inconclusive results and toxic doses are left out. The calls were made as follows: active = survival T/C of 150% or more; inactive = T/C below 125% in these data.

System: BDF1 mice, P388 leukemia ip, median survival T/C
Experiment: NCI In Vivo Anticancer Drug Screen. Data for tumor model P388 Leukemia (intraperitoneal) in B6D2F1 (BDF1) mice
Conditions: endpoint: median survival time, higher = longer survival
Procedure, shortened: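 Transplantable tumour in mice; compound vs vehicle dosing; survival scored; ratio of treated to control reported.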

[1] = dose: 50.0 mg/kg/injection, schedule: Q04DX003 (ip), vehicle: Klucel (hydroxypropylcellulose) (HPC)
[2] = dose: 100.0 mg/kg/injection, schedule: Q04DX003 (ip), vehicle: Klucel (hydroxypropylcellulose) (HPC)
[3] = dose: 200.0 mg/kg/injection, schedule: Q04DX003 (ip), vehicle: Klucel (hydroxypropylcellulose) (HPC)
[4] = dose: 50.0 mg/kg/injection, schedule: Q01DX009 (ip), vehicle: saline with Tween-80
[5] = dose: 100.0 mg/kg/injection, schedule: Q01DX009 (ip), vehicle: saline with Tween-80
[6] = dose: 200.0 mg/kg/injection, schedule: Q01DX009 (ip), vehicle: saline with Tween-80

Measured: T/C

COc1cc2c(ccc3c4cc(OC)c(OC)cc4c[n+](C)c23)cc1O
active: dose: 12.5 mg/kg/injection, schedule: Q01DX009 (ip), vehicle: Klucel (hydroxypropylcellulose) (HPC) 165 % of control | dose: 25.0 mg/kg/injection, schedule: Q01DX009 (ip), vehicle: Klucel (hydroxypropylcellulose) (HPC) 173 % of control | dose: 25.0 mg/kg/injection, schedule: Q01DX010 (ip), vehicle: saline 190 % of control | dose: 40.0 mg/kg/injection, schedule: Q01DX009 (ip), vehicle: saline 190 % of control | dose: 40.0 mg/kg/injection, schedule: Q04DX003 (ip), vehicle: saline 190 % of control | dose: 50.0 mg/kg/injection, schedule: Q01DX009 (ip), vehicle: Klucel (hydroxypropylcellulose) (HPC) 219 % of control | dose: 50.0 mg/kg/injection, schedule: Q01DX010 (ip), vehicle: saline 210 % of control | dose: 80.0 mg/kg/injection, schedule: Q01DX009 (ip), vehicle: saline 210 % of control | dose: 80.0 mg/kg/injection, schedule: Q04DX003 (ip), vehicle: saline 180 % of control | dose: 100.0 mg/kg/injection, schedule: Q01DX009 (ip), vehicle: Klucel (hydroxypropylcellulose) (HPC) 230 % of control | dose: 100.0 mg/kg/injection, schedule: Q01DX010 (ip), vehicle: saline 265 % of control | dose: 160.0 mg/kg/injection, schedule: Q01DX009 (ip), vehicle: saline 270 % of control | dose: 160.0 mg/kg/injection, schedule: Q04DX003 (ip), vehicle: saline 215 % of control | dose: 320.0 mg/kg/injection, schedule: Q01DX009 (ip), vehicle: saline 205 % of control | dose: 320.0 mg/kg/injection, schedule: Q04DX003 (ip), vehicle: saline 270 % of control

CN(Nc1c([N+](=O)[O-])cc([N+](=O)[O-])cc1[N+](=O)[O-])c1cccc2ccccc12
inactive: dose: 25.0 mg/kg/injection, schedule: Q04DX003 (ip), vehicle: Klucel (hydroxypropylcellulose) (HPC) 109 % of control | [1] 100 % of control | [2] 100 % of control | [3] 86 % of control | dose: 400.0 mg/kg/injection, schedule: Q04DX003 (ip), vehicle: Klucel (hydroxypropylcellulose) (HPC) 90 % of control

O=C(/C=N/O)c1cccnc1
inactive: dose: 25.0 mg/kg/injection, schedule: Q04DX003 (ip), vehicle: saline sonified 100 % of control | dose: 50.0 mg/kg/injection, schedule: Q04DX003 (ip), vehicle: saline sonified 95 % of control | dose: 100.0 mg/kg/injection, schedule: Q04DX003 (ip), vehicle: saline sonified 100 % of control

CCN(CC)N=Nc1ccccc1-c1nc(N)c2ccccc2n1
active: [1] 157 % of control | [2] 161 % of control | [3] 180 % of control

Cc1cc2nc(SCC(=O)O)[nH]c2cc1C
inactive: dose: 100.0 mg/kg/injection, schedule: Q01DX009 (ip), vehicle: gum acacia 107 % of control | dose: 100.0 mg/kg/injection, schedule: Q04DX003 (ip), vehicle: gum acacia 103 % of control | dose: 200.0 mg/kg/injection, schedule: Q01DX009 (ip), vehicle: gum acacia 100 % of control | dose: 200.0 mg/kg/injection, schedule: Q04DX003 (ip), vehicle: gum acacia 107 % of control | dose: 400.0 mg/kg/injection, schedule: Q01DX009 (ip), vehicle: gum acacia 96 % of control | dose: 400.0 mg/kg/injection, schedule: Q04DX003 (ip), vehicle: gum acacia 107 % of control

C/C(=N/N(C)C)c1ccc(Br)cc1
inactive: dose: 12.5 mg/kg/injection, schedule: Q01DX009 (ip), vehicle: saline 100 % of control | dose: 25.0 mg/kg/injection, schedule: Q01DX009 (ip), vehicle: saline 100 % of control | dose: 50.0 mg/kg/injection, schedule: Q01DX009 (ip), vehicle: saline 112 % of control | dose: 110.0 mg/kg/injection, schedule: Q04DX003 (ip), vehicle: saline 109 % of control | dose: 170.0 mg/kg/injection, schedule: Q04DX003 (ip), vehicle: saline 95 % of control | dose: 255.0 mg/kg/injection, schedule: Q04DX003 (ip), vehicle: saline 95 % of control

CC(=O)C1CCC2C3CCC4=CC(=O)CC4(C)C3CCC12C (stereo not drawn)
inactive: [4] 95 % of control | dose: 50.0 mg/kg/injection, schedule: Q04DX003 (ip), vehicle: saline with Tween-80 104 % of control | [5] 90 % of control and 100 % of control | dose: 100.0 mg/kg/injection, schedule: Q04DX003 (ip), vehicle: saline with Tween-80 95 % of control and 104 % of control | [6] 90 % of control and 95 % of control | dose: 200.0 mg/kg/injection, schedule: Q04DX003 (ip), vehicle: saline with Tween-80 90 % of control and 95 % of control | dose: 400.0 mg/kg/injection, schedule: Q01DX009 (ip), vehicle: saline with Tween-80 86 % of control | dose: 400.0 mg/kg/injection, schedule: Q04DX003 (ip), vehicle: saline with Tween-80 90 % of control

CC(=O)O[C@]1(C(C)=O)CC[C@H]2[C@@H]3C[C@H](C)C4=CC(=O)C=C[C@]4(C)[C@@]3(F)[C@@H](O)C[C@@]21C
inactive: dose: 12.5 mg/kg/injection, schedule: Q01DX010 (sc), vehicle: steriod suspending solution 100 % of control and 108 % of control | dose: 25.0 mg/kg/injection, schedule: Q01DX010 (sc), vehicle: steriod suspending solution 100 % of control and 112 % of control | dose: 50.0 mg/kg/injection, schedule: Q01DX010 (sc), vehicle: steriod suspending solution 95 % of control and 112 % of control | dose: 100.0 mg/kg/injection, schedule: Q01DX010 (sc), vehicle: steriod suspending solution 91 % of control and 104 % of control

COc1ccc(C2=C/C(=C3/C(=O)C=C(C)OC3=O)SS2)cc1
inactive: [4] 90 % of control | [5] 92 % of control | [6] 97 % of control
